# Assay results from patent publication US9034891B2, “Bicyclic heterocyclic spiro compounds” (ISRAEL INSTITUTE FOR BIOLOGICAL RESEARCH, priority 2009, dated 2015).
# Columns and labels:
# [1] = target: T1, M1 mAChR (Homo sapiens, UniProt P11229); test: Intracellular Ca2+ mobilization (Fluo-4 NW) in cells stably transfected with M1 mAChR; type: cell-based; design: expressed in transfected cells; details: 100 μM; mobilization of intracellular Ca ions
# T1 sequence (P11229 1-460): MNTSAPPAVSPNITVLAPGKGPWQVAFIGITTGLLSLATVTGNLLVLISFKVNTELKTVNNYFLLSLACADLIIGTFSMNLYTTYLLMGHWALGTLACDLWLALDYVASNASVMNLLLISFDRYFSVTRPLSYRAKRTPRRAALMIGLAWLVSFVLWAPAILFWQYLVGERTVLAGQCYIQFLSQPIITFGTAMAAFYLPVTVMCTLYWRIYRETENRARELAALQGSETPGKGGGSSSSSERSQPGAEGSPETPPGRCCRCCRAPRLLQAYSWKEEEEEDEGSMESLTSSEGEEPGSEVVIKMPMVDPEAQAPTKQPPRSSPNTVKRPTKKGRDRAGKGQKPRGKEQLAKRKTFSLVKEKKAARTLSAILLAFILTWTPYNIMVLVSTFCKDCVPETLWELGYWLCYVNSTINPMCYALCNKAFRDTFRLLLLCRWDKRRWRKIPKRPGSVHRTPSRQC
# Description: On the day of experiment, cells were fully confluent.
# To evaluate selectivity for a subtype of mAChR, in particular the M1 mAChR vs. M3 and MS mAChR, the assays were calibrated using ligands that have a combined activity, e.g. M1 agonistic and M3 antagonistic or M1 agonistic and MS antagonistic profiles, respectively. This can eliminate effects due to different receptor reserves in cell-based assays.
# [2] = tested on: PC12 cells; test: MTT assay, β-amyloid 25-35 toxicity in PC12 cells; type: cell-based, rat; details: 5 μM β-amyloid 25-35, 6 hours; 10 μM-1 nM
# Description: The 3-(4,5-dimethylthiazol-2-yl)-2,5-diphenyl-tetrazolium bromide (MTT) assay measures changes that occur within the cells, involving mitochondria activation, indicative of a process that eventually leads to cell death (Fagarasan et al., Mol. Psychiat. 1996, 1:398-403). This assay is a specific, early indicator of the mechanism of β-amyloid-mediated cell death (Shearman et al., PNAS USA 1994, 91:1470-74). This assay was used to evaluate compounds of formulae I and II. Rat pheochromocytoma (PC12) cells were plated in 96 well plate at a density of 10,000 cells/well, and maintained in Dulbecco's modified Eagle medium (Gibco, Cat. 21969) supplemented with 5% fetal bovine serum (Biological Industries, Cat. 04-121-1A), 10% heat-inactivated horse serum (Gibco Cat. 26050), L-Glutamine 200 mM (Biological Industries, Cat. 03-020-1C), Penicillin 10000 U/ml (Biological Industries, Cat 03-031-1C), and Amphotericin B 50 mg/ml (Biological Industries, Cat. 01-029-1C). The next day the medium was refreshed with serum free media and cells were treated with 5 μM β-amyloid 25-35 (H-1192.0001, Bachem) in the presence or absence of the test compound. Compounds were tested for 6 hours, respectively, at final concentrations ranging between 0.1 nM to 100 μM. 3-Indolepropionic acid (3-IPA, Cat. 220027, Sigma Aldrich) served as a reference antioxidant.
# [3] = target: T1, M1 mAChR; test: αAPPs secretion in CHO cells double transfected with human APP695 and human M1 mAChR; type: cell-based
# Method: (§1) α-APPs Secretion studies following incubation with the tested compounds were performed as described in Haring, et al. J. Neurochem., 1998, 71:2094-103. […] A day later, cells were washed twice with serum free media, and treated with the test compound at various concentrations ranging from 0.1 nM to 100 μM. […] After 1 hour the conditioned medium was collected to cold Eppendorf tubes, which included a protease inhibitor cocktail (0.1 mM phenylmethylsulphonyl fluoride (PMSF); 5 μg/ml leupeptin; 5 μg/ml pepstatin and 5 units/ml aprotinin) for determining αAPPs release. The protein content of each sample was concentrated using Centricon tubes (Amicon, Beverly, Mass.). […] CHO cells double transfected with human APP695 and M1 mAChR APPs bands were probed using anti-amyloid beta protein (1:1000, monoclonal 6E10 antibody, MAB1560, Chemicon) and peroxidase-linked rabbit anti mouse IgG (1:5,000; Jackson Immuno Research, PA). PC12 cells stably transfected with M1 mAChR APPs bands were probed using the anti-Alzheimer precursor protein A4 (1:4,000; monoclonal 22C11 antibody, Boehringer Mannheim) and the peroxidase-linked rabbit anti mouse IgG (1:20,000; Jackson Immuno Research, PA). Following extensive washout, the membranes were treated with Western Lightning Chemiluminescence Reagent Plus (PerkinElmer Life Sciences, MA) followed by exposure to SuperRX film (Fuji Medical X-ray film, Tokyo, Japan). Quantitative determination of the total APPs bands was performed by Scion Image program (NIH, Bethesda, USA). Samples of control and CCh were assayed in parallel and thus enabled compilation of data from separate experiments.
# [4] = target: T2, rat M1 mAChR (Rattus norvegicus, UniProt P08482); test: αAPPs secretion in PC12 cells stably transfected with rat M1 mAChR; type: cell-based; details: 0.1 nM to 1 μM, not observed in untransfected PC12
# T2 construct: expressed in transfected cells; host or cells: rat pheochromocytoma PC12 cells
# T2 sequence (P08482 whole entry): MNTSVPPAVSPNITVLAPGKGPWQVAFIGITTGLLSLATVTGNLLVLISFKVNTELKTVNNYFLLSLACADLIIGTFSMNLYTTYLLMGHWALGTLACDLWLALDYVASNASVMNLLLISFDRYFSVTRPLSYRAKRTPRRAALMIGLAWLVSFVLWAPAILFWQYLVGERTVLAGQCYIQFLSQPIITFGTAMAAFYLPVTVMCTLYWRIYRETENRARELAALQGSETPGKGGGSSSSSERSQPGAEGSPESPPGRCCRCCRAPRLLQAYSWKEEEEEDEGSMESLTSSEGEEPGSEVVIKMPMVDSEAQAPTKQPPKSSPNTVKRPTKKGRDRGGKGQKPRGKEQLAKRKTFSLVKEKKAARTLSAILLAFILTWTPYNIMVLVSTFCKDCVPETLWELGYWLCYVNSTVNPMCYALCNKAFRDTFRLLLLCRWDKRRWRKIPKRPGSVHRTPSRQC
# Method: as §1, with “Following extensive washout, the membranes were treated with Western Lightning Chemiluminescence Reagent Plus (PerkinElmer Life Sciences, MA) followed by exposure to SuperRX film (Fuji Medical X-ray film, Tokyo, Japan).” left out, “Samples of control and CCh were assayed in parallel and thus enabled compilation of data from separate experiments.” left out
# [5] = target: T1, M1 mAChR
Compound,"M1 agonist at 100 μM vs. carbachol (full muscarinic agonist, 100%) [1] [%]",protection against toxicity induced by Aβ25-35 (MTT) [2],"release of αAPPs ([3]; CHO cells, 0.1 nM to 1 μM)","maximal αAPPs secretion in comparison to untreated control cells ([3]; doubly-transfected CHO cells, AF710B at 0.01 μM, AF710 at 0.1 μM, AF710A at 1 μM) [%]",release of αAPPs [4],effect of brucine pre-incubation on elevation of intracellular calcium ions [5]
"CC1SC2(CCN(C)CC2)CN1C(=O)CCc1c[nH]c2ccccc12 (racemic) [AF710, 1-(2,8-dimethyl-1-thia-3,8-diazaspiro[4.5]dec-3-yl)-3-(1H-indol-3-yl) propan-1-one]",40,protected cells,enhanced the release of αAPPs,175,enhanced the release of αAPPs,no such effect
"CC1OC2(CCN(C)CC2)CN1C(=O)CCc1c[nH]c2ccccc12 (racemic) [AF711, 1-(2,8-dimethyl-1-oxa-3,8-diazaspiro[4.5]dec-3-yl)-3-(1H-indol-3-yl)-propan-1-one]",19,protected cells,–,–,–,–
"O=C(O)CCc1c[nH]c2ccccc12 [3-IPA, 3-Indolepropionic acid, reference compound]",–,protected cells,–,–,–,–
